Data on 15 molecules can be found in ChEMBL document CHEMBL5104183, “Discovery of Highly Potent and Selective Matrix Metalloproteinase-7 Inhibitors by Hybridizing the S1' Subsite Binder with Short Peptides” (J Med Chem, 2022).

The IC50 is the concentration at which inhibition is half-maximal.

*1 amine or outer side, *2 acyl side, *3 side chain or, on linkers, in order; H or OH if unused. Where a SMILES comes first, the peptide text is derived from it. [ ]: non-standard residue; d: D form. The star is where a group is joined. Benzenesulfonyl(4-Cl,3-CF3) = O=S(=O)(c1ccc(Cl)c(C(F)(F)F)c1)*; γGlu = O=C(O)[C@H](CCC(=O)[*:2])N[*:1]; β3hP = O=C(O)C[C@@H]1CCCN1

Series [1] addresses Macrophage metalloelastase (Homo sapiens, UniProt P39900). The experiment in a line: Inhibition of human recombinant MMP-12 (Leu17 to Cys470 residues) using MOCAc-Pro-Leu-Gly-Leu-A2pr(Dnp)-Ala-Arg-NH2 as fluorogenic substrate preincubated for 15 mins followed by substrate addition by fluorescence based analysis.
The nature of series [2]: Stability in human liver microsomes at 1 uM incubated for 15 mins by liquid chromatography-mass spectrometry. Format: ADME, Microsome. Conditions: 0.25 h. In general terms: Microsomes from liver hold many membrane-bound enzymes, among them those of drug oxidation.
The next series has as its target T1, Interstitial collagenase (Homo sapiens, UniProt P03956).
T1 sequence (P03956 whole entry): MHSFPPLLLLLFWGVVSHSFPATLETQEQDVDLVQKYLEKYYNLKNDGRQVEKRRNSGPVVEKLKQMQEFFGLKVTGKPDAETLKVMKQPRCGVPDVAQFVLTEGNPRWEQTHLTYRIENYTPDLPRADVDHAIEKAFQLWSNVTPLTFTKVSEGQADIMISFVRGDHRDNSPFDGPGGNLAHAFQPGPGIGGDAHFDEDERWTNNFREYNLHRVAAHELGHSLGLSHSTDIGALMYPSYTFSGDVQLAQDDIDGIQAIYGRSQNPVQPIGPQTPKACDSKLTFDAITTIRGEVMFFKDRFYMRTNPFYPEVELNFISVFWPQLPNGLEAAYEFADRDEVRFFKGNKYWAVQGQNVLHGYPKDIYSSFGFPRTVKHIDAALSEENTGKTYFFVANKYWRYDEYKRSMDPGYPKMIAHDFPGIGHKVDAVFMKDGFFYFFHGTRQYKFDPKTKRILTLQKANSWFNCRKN
The experiment in a line: Inhibition of human recombinant MMP-1 (Phe20 to Asn469 residue) using MOCAc-Lys-Pro-Leu-Gly-Leu-A2pr(Dnp)-Ala-Arg-NH2 as fluorogenic substrate preincubated for 15 mins followed by substrate addition by fluorescence based analysis.

The target in series [3] is Matrix metalloproteinase-14 (Homo sapiens, UniProt P50281). The experiment in a line: Inhibition of human recombinant C-terminal 10-His tagged MMP-14 ( Ala21 to Gly284 residues) using MOCAc-Lys-Pro-Leu-Gly-Leu-A2pr(Dnp)-Ala-Arg-NH2 as fluorogenic substrate preincubated for 15 mins followed by substrate addition by fluorescence based analysis.
In series [4] the target is Matrix metalloproteinase-9 (Homo sapiens, UniProt P14780). Nature of the series: Inhibition of human recombinant MMP-9 (Ala20 to Asp707 residues) using MOCAc-Pro-Leu-Gly-Leu-A2pr(Dnp)-Ala-Arg-NH2 as fluorogenic substrate preincubated for 15 mins followed by substrate addition by fluorescence based analysis.
A further series addresses T2, Matrilysin (Homo sapiens, UniProt P09237).
T2 sequence (P09237 whole entry): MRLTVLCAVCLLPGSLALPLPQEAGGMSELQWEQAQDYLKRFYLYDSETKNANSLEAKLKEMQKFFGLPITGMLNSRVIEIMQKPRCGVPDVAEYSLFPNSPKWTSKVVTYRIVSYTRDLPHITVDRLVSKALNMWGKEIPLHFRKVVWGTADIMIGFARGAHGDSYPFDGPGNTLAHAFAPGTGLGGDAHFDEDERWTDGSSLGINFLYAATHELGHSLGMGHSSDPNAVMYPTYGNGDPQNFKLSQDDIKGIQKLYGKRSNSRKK
The experiment in a line: Inhibition of human recombinant MMP-7 (Leu18 to Lys267 residues) using MOCAc-Pro-Leu-Gly-Leu-A2pr(Dnp)-Ala-Arg-NH2 as fluorogenic substrate preincubated for 15 mins followed by substrate addition by fluorescence based analysis.

The target in a further series is Collagenase 3 (Homo sapiens, UniProt P45452). The experiment in a line: Inhibition of human recombinant MMP-13 (Leu20 to Cys471 residues) using MOCAc-Pro-Leu-Gly-Leu-A2pr(Dnp)-Ala-Arg-NH2 as fluorogenic substrate preincubated for 15 mins followed by substrate addition by fluorescence based analysis.
The target of a further series is Neutrophil collagenase (Homo sapiens, UniProt P22894). Nature of the series: Inhibition of human recombinant MMP-8 (Phe21 to Gly467 residues) using MOCAc-Pro-Leu-Gly-Leu-A2pr(Dnp)-Ala-Arg-NH2 as fluorogenic substrate preincubated for 15 mins followed by substrate addition by fluorescence based analysis.
Series [5] in a line: Stability in human serum incubated for 4 hrs by liquid chromatography-tandem mass spectrometry. Format: ADME, cell-free.
Another series concerns the target Stromelysin-1 (Homo sapiens, UniProt P08254). The experiment in a line: Inhibition of human recombinant MMP-3 (Tyr18 to Cys477 residues ) using MOCAc-Arg-Pro-Lys-Pro-Val-Glu-Nva-Trp-Arg-Lys(Dnp)-NH2 as fluorogenic substrate preincubated for 15 mins followed by substrate addition by fluorescence based analysis.
Series [6] deals with 72 kDa type IV collagenase (Homo sapiens, UniProt P08253). The experiment in a line: Inhibition of human recombinant MMP-2 ( Ile34 to Cys660 residues) using MOCAc-Pro-Leu-Gly-Leu-A2pr(Dnp)-Ala-Arg-NH2 as fluorogenic substrate preincubated for 15 mins followed by substrate addition by fluorescence based analysis.
Series [7] is filed under the species Homo sapiens. Nature of the series: Selectivity index, ratio of IC50 for human recombinant MMP-12 to IC50 for human recombinant MMP-7.
The species named for series [8] is Homo sapiens. The experiment in a line: Selectivity index, ratio of IC50 for human recombinant MMP-14 to IC50 for human recombinant MMP-7.

Sequence of 72 kDa type IV collagenase (P08253 whole entry): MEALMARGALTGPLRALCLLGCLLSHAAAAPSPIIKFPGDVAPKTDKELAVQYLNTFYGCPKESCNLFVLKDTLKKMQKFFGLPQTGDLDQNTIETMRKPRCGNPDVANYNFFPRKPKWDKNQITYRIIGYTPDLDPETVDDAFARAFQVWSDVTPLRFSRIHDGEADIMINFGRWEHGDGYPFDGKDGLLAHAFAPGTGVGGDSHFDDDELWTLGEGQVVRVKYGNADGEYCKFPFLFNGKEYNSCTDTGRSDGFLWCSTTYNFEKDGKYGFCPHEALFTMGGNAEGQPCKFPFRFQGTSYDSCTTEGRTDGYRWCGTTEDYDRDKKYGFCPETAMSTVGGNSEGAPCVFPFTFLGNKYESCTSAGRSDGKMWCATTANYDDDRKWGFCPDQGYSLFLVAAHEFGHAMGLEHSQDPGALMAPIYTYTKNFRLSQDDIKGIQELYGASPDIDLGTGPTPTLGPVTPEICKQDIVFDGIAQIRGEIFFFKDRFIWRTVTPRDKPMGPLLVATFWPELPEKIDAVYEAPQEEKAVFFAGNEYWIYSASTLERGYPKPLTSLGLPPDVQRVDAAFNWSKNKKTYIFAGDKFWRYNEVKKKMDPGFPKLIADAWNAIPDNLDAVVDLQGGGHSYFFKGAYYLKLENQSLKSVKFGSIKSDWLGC
Sequence of Macrophage metalloelastase (P39900 whole entry): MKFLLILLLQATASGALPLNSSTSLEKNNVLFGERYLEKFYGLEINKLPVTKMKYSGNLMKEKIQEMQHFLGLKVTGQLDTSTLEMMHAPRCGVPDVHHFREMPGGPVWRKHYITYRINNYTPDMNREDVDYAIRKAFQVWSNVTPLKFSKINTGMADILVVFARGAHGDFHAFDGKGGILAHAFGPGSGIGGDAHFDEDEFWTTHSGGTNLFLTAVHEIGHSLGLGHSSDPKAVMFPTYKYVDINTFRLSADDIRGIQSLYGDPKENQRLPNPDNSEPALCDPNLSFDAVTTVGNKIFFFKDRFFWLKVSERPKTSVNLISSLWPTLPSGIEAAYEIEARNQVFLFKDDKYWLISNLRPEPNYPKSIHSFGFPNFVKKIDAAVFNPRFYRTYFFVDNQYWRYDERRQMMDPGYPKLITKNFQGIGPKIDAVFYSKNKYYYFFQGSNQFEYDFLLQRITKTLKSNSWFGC
Sequence of Stromelysin-1 (P08254 whole entry): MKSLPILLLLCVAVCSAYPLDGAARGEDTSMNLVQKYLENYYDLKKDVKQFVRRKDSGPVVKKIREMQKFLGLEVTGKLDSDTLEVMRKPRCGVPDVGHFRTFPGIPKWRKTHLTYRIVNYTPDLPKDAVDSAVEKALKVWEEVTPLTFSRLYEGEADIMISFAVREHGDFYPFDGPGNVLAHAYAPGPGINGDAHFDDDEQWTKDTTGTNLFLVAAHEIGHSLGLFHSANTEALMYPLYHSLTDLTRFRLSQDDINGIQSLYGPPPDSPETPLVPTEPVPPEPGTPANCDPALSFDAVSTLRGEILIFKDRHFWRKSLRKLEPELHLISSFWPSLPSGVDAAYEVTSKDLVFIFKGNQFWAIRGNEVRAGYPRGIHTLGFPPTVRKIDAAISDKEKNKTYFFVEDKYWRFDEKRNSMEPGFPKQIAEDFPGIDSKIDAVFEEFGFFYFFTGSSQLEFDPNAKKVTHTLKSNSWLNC
Sequence of Neutrophil collagenase (P22894 whole entry): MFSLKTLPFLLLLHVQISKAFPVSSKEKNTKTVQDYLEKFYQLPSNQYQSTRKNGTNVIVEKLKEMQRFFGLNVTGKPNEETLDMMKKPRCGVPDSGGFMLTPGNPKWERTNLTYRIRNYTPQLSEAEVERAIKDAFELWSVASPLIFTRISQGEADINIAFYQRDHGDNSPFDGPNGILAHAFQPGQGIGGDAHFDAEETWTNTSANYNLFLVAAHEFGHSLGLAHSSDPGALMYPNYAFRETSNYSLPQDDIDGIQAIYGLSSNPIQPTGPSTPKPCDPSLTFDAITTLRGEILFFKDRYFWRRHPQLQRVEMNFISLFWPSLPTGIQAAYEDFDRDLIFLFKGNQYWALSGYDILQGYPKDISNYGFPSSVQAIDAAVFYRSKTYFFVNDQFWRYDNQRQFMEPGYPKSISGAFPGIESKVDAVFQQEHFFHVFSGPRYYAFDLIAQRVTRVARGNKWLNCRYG
Sequence of Matrix metalloproteinase-9 (P14780 whole entry): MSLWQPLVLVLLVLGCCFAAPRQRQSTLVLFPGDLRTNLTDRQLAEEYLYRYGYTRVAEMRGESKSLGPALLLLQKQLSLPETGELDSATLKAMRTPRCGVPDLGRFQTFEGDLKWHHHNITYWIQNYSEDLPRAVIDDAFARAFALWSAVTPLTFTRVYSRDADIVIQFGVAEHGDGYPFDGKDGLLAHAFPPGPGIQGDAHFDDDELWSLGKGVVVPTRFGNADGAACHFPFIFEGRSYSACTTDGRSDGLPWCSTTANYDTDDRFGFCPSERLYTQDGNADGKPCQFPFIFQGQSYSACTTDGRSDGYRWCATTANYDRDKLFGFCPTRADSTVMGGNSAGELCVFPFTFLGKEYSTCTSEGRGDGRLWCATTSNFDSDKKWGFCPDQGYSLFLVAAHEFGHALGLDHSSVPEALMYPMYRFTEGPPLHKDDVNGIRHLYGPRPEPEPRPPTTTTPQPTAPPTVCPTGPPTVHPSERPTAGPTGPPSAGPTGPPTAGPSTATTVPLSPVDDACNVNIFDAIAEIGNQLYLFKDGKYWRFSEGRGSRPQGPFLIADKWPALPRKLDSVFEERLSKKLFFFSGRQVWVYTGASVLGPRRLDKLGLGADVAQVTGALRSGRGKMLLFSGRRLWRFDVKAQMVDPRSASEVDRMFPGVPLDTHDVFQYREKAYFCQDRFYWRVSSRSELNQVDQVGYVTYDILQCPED

Consider `CC(C)C[C@H](NC(=O)CNC(=O)CC[C@H](NS(=O)(=O)c1ccc(Cl)c(C(F)(F)F)c1)C(=O)O)C(=O)N[C@H](C(=O)N[C@@H](C)C(N)=O)C(C)C` ({Benzenesulfonyl(4-Cl,3-CF3)-γGlu}-GLVA-NH2), for which the IC50 in series [1] is 12 µM; on Interstitial collagenase, greater than 100 µM; in series [3], 11 µM; in series [4], greater than 100 µM; on Matrilysin it was 0.016 µM; at Collagenase 3, greater than 100 µM. In addition, the IC50 at Neutrophil collagenase was greater than 100 µM; on Stromelysin-1, greater than 100 µM; in [6], 33 µM. In addition, the Stability entry in series [2] and in series [5] was “Stable” in each case.
Turning to `CC(C)C[C@H](NC(=O)[C@H](C)NC(=O)CC[C@H](NS(=O)(=O)c1ccc(Cl)c(C(F)(F)F)c1)C(=O)O)C(=O)N[C@@H](C)C(N)=O`, the half-maximal inhibitory concentration (IC50) on Matrilysin is 1.7 µM.
As to `CC(C)C[C@H](NC(=O)CNC(=O)CC[C@H](NS(=O)(=O)c1ccc(Cl)c(C(F)(F)F)c1)C(=O)O)C(=O)N[C@H](C(=O)N1CCC[C@H]1CC(N)=O)C(C)C` ({Benzenesulfonyl(4-Cl,3-CF3)-γGlu}-GLV[β3hP]-NH2), the Ratio IC50 in the series filed under Homo sapiens [7] was 290; in the series filed under Homo sapiens [8], 45. Moreover, the IC50 in [1] was 2.9 µM; in series [3] it was 0.45 µM; in series [4], greater than 100 µM; at Matrilysin it was 0.01 µM; on Collagenase 3 it was greater than 100 µM; on Neutrophil collagenase it was 59 µM. Further, the IC50 on Stromelysin-1 is greater than 100 µM; in series [6] it was 11 µM. Further, the Stability entry in series [2] and in series [5] was “Stable” in each case.
`CSCC[C@H](NC(=O)[C@H](CC(C)C)NC(=O)[C@H](CO)NC(=O)CC[C@H](NS(=O)(=O)c1ccc(Cl)c(C(F)(F)F)c1)C(=O)O)C(N)=O`: the IC50 at Matrilysin stood at 5.7 µM.
Turning to `CSCC[C@H](NC(=O)[C@H](CC(C)C)NC(=O)CNC(=O)CC[C@H](NS(=O)(=O)c1ccc(Cl)c(C(F)(F)F)c1)C(=O)O)C(N)=O`, the IC50 in series [1] is 20 µM; in [3] it was 25 µM; in [4], greater than 100 µM; at Matrilysin it was 0.12 µM; on Collagenase 3, greater than 100 µM; on Neutrophil collagenase, greater than 100 µM. Also, the half-maximal inhibitory concentration (IC50) on Stromelysin-1 was greater than 100 µM; in series [6], 73 µM.
`CSCC[C@H](NC(=O)[C@H](CC(C)C)NC(=O)[C@H](CC(C)C)NC(=O)CC[C@H](NS(=O)(=O)c1ccc(Cl)c(C(F)(F)F)c1)C(=O)O)C(N)=O`: on Matrilysin, the IC50 is 0.78 µM.
As for `CC(C)C[C@H](NC(=O)CNC(=O)CC[C@H](NS(=O)(=O)c1ccc(Cl)c(C(F)(F)F)c1)C(=O)O)C(=O)N[C@H](C(=O)N1CCC[C@H]1C(N)=O)C(C)C` ({Benzenesulfonyl(4-Cl,3-CF3)-γGlu}-GLVP-NH2), the IC50 at Matrilysin was found to be 0.019 µM.
Regarding `CSCC[C@H](NC(=O)[C@H](CC(C)C)NC(=O)[C@H](CC(N)=O)NC(=O)CC[C@H](NS(=O)(=O)c1ccc(Cl)c(C(F)(F)F)c1)C(=O)O)C(N)=O`, at Matrilysin, the IC50 is 7.5 µM.
Take `O=C(O)[C@H](CCc1ccccc1)NS(=O)(=O)c1ccc(Cl)c(C(F)(F)F)c1`: the IC50 in series [1] was greater than 100 µM; at Interstitial collagenase, greater than 100 µM; in series [3], greater than 100 µM; in [4], greater than 100 µM; at Matrilysin it was 6.1 µM; on Collagenase 3, greater than 100 µM. In addition, the IC50 (at Neutrophil collagenase; on Stromelysin-1; in series [6]) was greater than 100 µM each time.
Take `CSCC[C@H](NC(=O)[C@H](CC(C)C)NC(=O)[C@H](C)NC(=O)C[C@H](NS(=O)(=O)c1ccc(Cl)c(C(F)(F)F)c1)C(=O)O)C(N)=O`: the IC50 on Matrilysin turned out to be 4.7 µM.
For `CSCC[C@H](NC(=O)[C@H](CC(C)C)NC(=O)[C@H](C)NC(=O)CC[C@H](NS(=O)(=O)c1ccc(Cl)c(C(F)(F)F)c1)C(=O)O)C(N)=O`, the IC50 in series [1] was 40 µM; in series [3] it was greater than 100 µM; in [4], greater than 100 µM; at Matrilysin, 0.44 µM; at Collagenase 3, greater than 100 µM; at Neutrophil collagenase it was greater than 100 µM. In addition, the IC50 (on Stromelysin-1; in [6]) was greater than 100 µM in each case.
For `CSCC[C@H](NC(=O)[C@H](C)NC(=O)[C@H](C)NC(=O)CC[C@H](NS(=O)(=O)c1ccc(Cl)c(C(F)(F)F)c1)C(=O)O)C(N)=O`, the IC50 on Matrilysin came out at 6.7 µM.
On the same count and under the same terms, the result for `CSCC[C@H](NC(=O)[C@H](Cc1ccccc1)NC(=O)CNC(=O)CC[C@H](NS(=O)(=O)c1ccc(Cl)c(C(F)(F)F)c1)C(=O)O)C(N)=O` reads 0.11 µM.
In the case of `CC(C)C[C@H](NC(=O)CNC(=O)CC[C@H](NS(=O)(=O)c1ccc(Cl)c(C(F)(F)F)c1)C(=O)O)C(=O)N[C@H](C(N)=O)C(C)C`, the IC50 in [1] was 28 µM; at Interstitial collagenase, greater than 100 µM; in [3], 17 µM; in [4], greater than 100 µM; at Matrilysin it was 0.056 µM; on Collagenase 3, greater than 100 µM. For the same molecule, the IC50 was greater than 100 µM at Neutrophil collagenase, greater than 100 µM on Stromelysin-1 and 45 µM in series [6].
Take `CSCC[C@H](NC(=O)[C@H](CC(C)C)NC(=O)[C@H](CCC(N)=O)NC(=O)CC[C@H](NS(=O)(=O)c1ccc(Cl)c(C(F)(F)F)c1)C(=O)O)C(N)=O`: the IC50 at Matrilysin was 1.3 µM.
